Laboratory results taken from the supplement of paper PMC11061612.

Key:
[1] = system: KURAMOCHI (Ovarian Carcinoma); assay: combination Emax (second highest fraction inhibited in the dose matrix, 72 h); higher = more inhibition; extreme values may be limits of the assay
Outline: (§1)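 Cell lines grown in DMEM/F12 or RPMI with 10% FBS were plated in 1536-well plates and held 24 hours at 37°C, 5% CO2 before 72 hours of exposure to two-drug dose matrices, with DMSO typically at 0.2%. CellTiter-Glo 2.0 luminescence gave viability, which was converted to inhibition. Vehicle wells were set to 0 and blank wells to 1. Combination Emax is the second-highest inhibition in the matrix, and Bliss excess is the observed combination effect minus the expected EA + EB − EA·EB, where EA and EB are the single-agent effects.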

[2] = system: CaR-1 (Colorectal Carcinoma); assay: as above
Outline: as §1

[3] = system: DoTc2-4510 (Cervical Carcinoma); assay: as above
Outline: as §1

[4] = system: NCI-H2085 (Non-Small Cell Lung Carcinoma); assay: as above
Outline: as §1

[5] = system: KURAMOCHI (Ovarian Carcinoma); assay: Bliss excess, mean over the matrix (fraction); higher = more synergy
Outline: as §1

[6] = system: CAL-148 (Breast Carcinoma); assay: as above
Outline: as §1

[7] = system: HT-1376 (Bladder Carcinoma); assay: as above
Outline: as §1

HOS (Osteosarcoma) = assay: as above
Outline: as §1

[8] = system: HCC-78 (Lung Adenocarcinoma); assay: as above
Outline: as §1

[9] = system: CaR-1 (Colorectal Carcinoma); assay: as above
Outline: as §1

[10] = system: LS-180 (Colorectal Carcinoma); assay: as above
Outline: as §1

[11] = system: RO82-W-1 (Thyroid Gland Carcinoma); assay: as above
Outline: as §1

[12] = system: Hs-578-T (Breast Carcinoma); assay: as above
Outline: as §1

[13] = system: UM-UC-3 (Bladder Carcinoma); assay: as above
Outline: as §1

KELLY (Neuroblastoma) = assay: as above
Outline: as §1

[14] = system: TE-9 (Esophageal Squamous Cell Carcinoma); assay: as above
Outline: as §1

T98G (Glioblastoma) = assay: as above
Outline: as §1

[15] = system: ME-1 (Acute Myeloid Leukemia); assay: as above
Outline: as §1

[16] = system: HO-1-N-1 (Oral Cavity Carcinoma); assay: as above
Outline: as §1

[17] = system: NCI-H2085 (Non-Small Cell Lung Carcinoma); assay: as above
Outline: as §1
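For Bliss excess, mean over the matrix in this document: after 72 h of two-drug dosing.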

| SMILES | combination Emax [1] | combination Emax [2] | combination Emax [3] | combination Emax [4] | Bliss excess [5] | Bliss excess [6] | Bliss excess [7] | Bliss excess (HOS (Osteosarcoma)) | Bliss excess [8] | Bliss excess [9] | Bliss excess [10] | Bliss excess [11] | Bliss excess [12] | Bliss excess [13] | Bliss excess (KELLY (Neuroblastoma)) | Bliss excess [14] | Bliss excess (T98G (Glioblastoma)) | Bliss excess [15] | Bliss excess [16] | Bliss excess [17] |
| --- | --- | --- | --- | --- | --- | --- | --- | --- | --- | --- | --- | --- | --- | --- | --- | --- | --- | --- | --- | --- |
| C=CCn1c(=O)c2cnc(Nc3ccc(N4CCN(C)CC4)cc3)nc2n1-c1cccc(C(C)(C)O)n1 [AZD1775] + CCc1c2c(nc3ccc(O)cc13)-c1cc3c(c(=O)n1C2)COC(=O)[C@]3(O)CC [SN-38] (first compound max 1 µM, partner max 0.3 µM) | 0.944 | 0.808 | 0.92 | 0.523 | -0.0053 | -0.0022 | -0.0194 | -0.0934 | 0.0002 | -0.0429 | -0.115 | -0.0352 | 0.0934 | -0.0431 | -0.0534 | -0.0022 | 0.0057 | -0.0047 | -0.0092 | -0.0202 |
| C=CCn1c(=O)c2cnc(Nc3ccc(N4CCN(C)CC4)cc3)nc2n1-c1cccc(C(C)(C)O)n1 [AZD1775] + Nc1ccn([C@@H]2O[C@H](CO)[C@@H](O)C2(F)F)c(=O)n1 [Gemcitabine] (first compound max 1 µM, partner max 0.3 µM) | 0.699 | 0.729 | 0.729 | 0.725 | 0.0284 | 0.0035 | -0.0432 | 0.0754 | 0.0795 | -0.0001 | -0.0906 | -0.0271 | 0.045 | 0.0758 | 0.0306 | -0.0253 | 0.0257 | -0.0044 | 0.0188 | 0.032 |
| CN(CCO)CC[C@H](CSc1ccccc1)Nc1ccc(S(=O)(=O)NC(=O)c2ccc(N3CCC([C@@H](O)c4ccccc4-c4ccc(Cl)cc4)CC3)cc2)cc1S(=O)(=O)C(F)(F)F [AZD4320] + CC(=O)O[C@H]1C(=O)[C@@]2(C)[C@H]([C@H](OC(=O)c3ccccc3)[C@]3(O)C[C@H](OC(=O)[C@H](O)[C@@H](NC(=O)c4ccccc4)c4ccccc4)C(C)=C1C3(C)C)[C@]1(OC(C)=O)CO[C@@H]1C[C@@H]2O [Paclitaxel] (first compound max 1 µM, 7x7, partner max 3 µM) | 0.707 | 0.911 | 0.992 | 0.97 | 0.0929 | 0.0761 | 0.0857 | 0.184 | 0.168 | 0.0892 | -0.0382 | 0.332 | 0.047 | 0.192 | -0.0068 | 0.0929 | 0.0613 | 0.0994 | 0.0178 | 0.207 |
| CN(CCO)CC[C@H](CSc1ccccc1)Nc1ccc(S(=O)(=O)NC(=O)c2ccc(N3CCC([C@@H](O)c4ccccc4-c4ccc(Cl)cc4)CC3)cc2)cc1S(=O)(=O)C(F)(F)F [AZD4320] + CS(=O)(=O)CCNCc1ccc(-c2ccc3ncnc(Nc4ccc(OCc5cccc(F)c5)c(Cl)c4)c3c2)o1 [Lapatinib] (first compound max 1 µM, 7x7, partner max 10 µM) | 0.939 | 0.785 | 0.974 | 0.807 | 0.0392 | -0.0411 | 0.0125 | -0.0381 | -0.0248 | -0.0122 | -0.0521 | 0.0002 | 0.0188 | 0.0099 | 0.0272 | 0.0137 | 0.0029 | 0.0937 | 0.0439 | 0.019 |
| CN(CCO)CC[C@H](CSc1ccccc1)Nc1ccc(S(=O)(=O)NC(=O)c2ccc(N3CCC([C@@H](O)c4ccccc4-c4ccc(Cl)cc4)CC3)cc2)cc1S(=O)(=O)C(F)(F)F [AZD4320] + Nc1ccn([C@@H]2O[C@H](CO)[C@@H](O)C2(F)F)c(=O)n1 [Gemcitabine] (first compound max 1 µM, 7x7, partner max 0.3 µM) | 0.559 | 0.708 | 0.882 | 0.562 | 0.0216 | 0.0502 | -0.0644 | 0.0045 | -0.0215 | 0.0125 | -0.0907 | -0.0237 | 0.14 | -0.0229 | 0.0014 | 0.0151 | -0.0265 | 0.0049 | -0.0049 | 0.0228 |
| Cc1c2c(nn1C)CSCc1cc(n(C)n1)CSc1cc(c3ccccc3c1)OCCCc1c(C(=O)O)n(C)c3c-2c(Cl)ccc13 [AZD5991] + CC(=O)O[C@H]1C(=O)[C@@]2(C)[C@H]([C@H](OC(=O)c3ccccc3)[C@]3(O)C[C@H](OC(=O)[C@H](O)[C@@H](NC(=O)c4ccccc4)c4ccccc4)C(C)=C1C3(C)C)[C@]1(OC(C)=O)CO[C@@H]1C[C@@H]2O [Paclitaxel] (first compound max 1 µM, 7x7, partner max 3 µM) | 0.539 | 0.741 | 0.544 | 0.743 | 0.0479 | 0.0436 | -0.0424 | 0.103 | 0.11 | 0.038 | -0.033 | -0.023 | 0.0368 | -0.0693 | 0.0544 | 0.0317 | -0.0798 | -0.0368 | 0.0062 | 0.0904 |
| Cc1c2c(nn1C)CSCc1cc(n(C)n1)CSc1cc(c3ccccc3c1)OCCCc1c(C(=O)O)n(C)c3c-2c(Cl)ccc13 [AZD5991] + CS(=O)(=O)CCNCc1ccc(-c2ccc3ncnc(Nc4ccc(OCc5cccc(F)c5)c(Cl)c4)c3c2)o1 [Lapatinib] (first compound max 1 µM, 7x7, partner max 10 µM) | 0.674 | 0.432 | 0.549 | 0.47 | -0.012 | 0.0041 | -0.0102 | -0.0365 | -0.0167 | 0.0071 | 0.0651 | -0.0357 | -0.0984 | -0.001 | 0.0879 | -0.0218 | -0.0233 | -0.0089 | 0.0972 | 0.0494 |
| Cc1c2c(nn1C)CSCc1cc(n(C)n1)CSc1cc(c3ccccc3c1)OCCCc1c(C(=O)O)n(C)c3c-2c(Cl)ccc13 [AZD5991] + Nc1ccn([C@@H]2O[C@H](CO)[C@@H](O)C2(F)F)c(=O)n1 [Gemcitabine] (first compound max 1 µM, 7x7, partner max 0.3 µM) | 0.491 | 0.629 | 0.544 | 0.203 | 0.0117 | 0.122 | -0.03 | 0.0054 | -0.0102 | -0.0383 | -0.061 | -0.0453 | 0.0298 | -0.0402 | -0.0253 | -0.0201 | 0.0127 | -0.0612 | -0.0071 | -0.021 |
| C[C@@H]1COCCN1c1cc(C2([S@](C)(=N)=O)CC2)nc(-c2ccnc3[nH]ccc23)n1 [AZD6738] + C1CC(C1)(C(=O)[O-])C(=O)[O-].N.N.[Pt+2] [Carboplatin] (first compound max 10 µM, 7x7, partner max 10 µM) | 0.636 | 0.385 | 0.492 | 0.381 | 0.0222 | -0.11 | -0.039 | -0.0209 | -0.0401 | -0.0464 | 0.0068 | -0.0333 | -0.0559 | -0.0213 | -0.0516 | -0.0215 | -0.0401 | -0.0565 | 0.0156 | -0.067 |
| C[C@@H]1COCCN1c1cc(C2([S@](C)(=N)=O)CC2)nc(-c2ccnc3[nH]ccc23)n1 [AZD6738] + Nc1ccn([C@@H]2O[C@H](CO)[C@@H](O)C2(F)F)c(=O)n1 [Gemcitabine] (first compound max 10 µM, 7x7, partner max 0.3 µM) | 0.667 | 0.752 | 0.795 | 0.587 | 0.0761 | 0.0914 | -0.0097 | 0.134 | 0.067 | 0.0538 | -0.0568 | -0.018 | 0.012 | 0.113 | -0.0042 | 0.038 | -0.0284 | 0.0907 | 0.0528 | 0.07 |
| Cc1cc2ncnn2cc1Nc1ncc2c(n1)n(C1CCOCC1)c(=O)n2C [AZD7648] + COc1cc([C@@H]2c3cc4c(cc3[C@@H](O[C@@H]3O[C@@H]5CO[C@@H](C)O[C@H]5[C@H](O)[C@H]3O)[C@H]3COC(=O)[C@H]23)OCO4)cc(OC)c1O [Etoposide] (first compound max 10 µM, 7x7, partner max 10 µM) | 0.474 | 0.661 | 0.721 | 0.434 | 0.0716 | 0.163 | -0.0021 | 0.0772 | 0.0695 | 0.0253 | 0.0183 | 0.0049 | 0.0777 | 0.105 | 0.0734 | 0.0158 | 0.12 | -0.0301 | 0.23 | 0.0734 |
| N#Cc1cnc(Nc2cc(NC[C@H]3CNCCO3)c(C(F)(F)F)cn2)cn1 [SRA737] + C=CCn1c(=O)c2cnc(Nc3ccc(N4CCN(C)CC4)cc3)nc2n1-c1cccc(C(C)(C)O)n1 [AZD1775] (first compound max 10 µM, partner max 1 µM) | 0.717 | 0.408 | 0.725 | 0.882 | -0.0194 | 0.184 | 0.0357 | 0.06 | 0.0611 | -0.0239 | 0.0475 | -0.0441 | 0.0771 | 0.0749 | 0.0387 | 0.0457 | 0.0169 | 0.0456 | 0.0976 | – |
| N#Cc1cnc(Nc2cc(NC[C@H]3CNCCO3)c(C(F)(F)F)cn2)cn1 [SRA737] + CCc1c2c(nc3ccc(O)cc13)-c1cc3c(c(=O)n1C2)COC(=O)[C@]3(O)CC [SN-38] (first compound max 10 µM, 7x7, partner max 0.3 µM) | 0.9 | 0.791 | 0.936 | 0.665 | -0.0093 | -0.0602 | 0.0047 | 0.0136 | -0.0447 | -0.0711 | – | -0.04 | 0.114 | -0.0017 | -0.0429 | -0.0181 | 0.0065 | 0.0352 | -0.0022 | -0.0053 |
